From patent US20250066347A1, “SUBSTITUTED THIAZOLIDINEDIONE DERIVATIVE COMPOUND, AND PHARMACEUTICAL COMPOSITION FOR PREVENTING OR TREATING CANCER, COMPRISING SAME” (MEDIFIC, INC., priority 2021, published 2025)
Values joined by “and” are separate entries in the source; they are usually repeats but may differ in a detail not shown here. Equal entries are not always repeated. Where two headings read alike, the source gives them in different places.

Legend:
HOG-GSC cells = test: Comparison of cell viability in brain tumor stem cell (MTS assay); format: cell-based; details: 72 hours, DMSO control = 1, value below 0.5 = viability decreased by 50% or more
Procedure: HOG-GSC cells which are brain tumor stem cells were treated with 11 compounds at 10 μM and DMSO as a control group, and the number of surviving cells after 72 hours was evaluated by MTS assay.
HOG-GSC which is a brain tumor stem cell was seeded on a 96-well plate at 5000 cells per well, and was cultured in an incubator (ThermoFisher) at 37° C. and 5% CO2 for 24 hours for stabilization of cells. Thereafter, it was treated with 11 compounds of the present invention at […] each, and treated with the same volume of DMSO as a control group as the volume of each compound. After treatment with the compound of the present invention and the control group, cells were cultured in an incubator at 37° C. and 5% CO2 for 72 hours. Thereafter, since there were many living cells in each well, cell viability was quantified using a cell viability assay kit (LPS solution) of which the color becomes darker with an increase in the number of cells. After treatment with the cell viability assay solution, a reaction was performed in an incubator at 37° C. and 5% CO2 for 3 hours to perform coloration, absorbance at 450 nm was measured using a microplate reader (BioTek), and an absorbance intensity of the control group was set to 1 and the absorbance of cells treated with each compound was normalized and is shown in FIG. 2.

HOG-GSC = test: Cell viability analysis depending on the concentration of Compound 11; format: cell-based; details: 0.078-20 μM, 72 hours
Procedure: HOG-GSC which is a brain tumor stem cell was seeded on a 96-well plate at 5000 cells/well, treated with Compound 11 (Example 11) at concentrations of 20 μM, 10 μM, 5 μM, 2.5 μM, 1.25 μM, 0.625 μM, 0.312 μM, 0.156 μM, and 0.078 μM repeatedly 3 times after 24 hours, and treated with the same volume of DMSO as a control group repeatedly 3 times. After the treatment, cells were cultured for 72 hours in an incubator (ThermoFisher) at 37° C., 5% Co2. Thereafter, since there were many living cells in each well, the cell viability depending on the concentration of Compound 11 (Example 11) was compared using a cell viability assay kit (LPS solution) of which the color becomes darker with an increase in the number of cells. Further, absorbance at 450 nm was measured using a microplate reader (BioTek), and absorbance at each concentration was normalized based on the absorbance intensity of the control group of 1 and is shown in FIG. 4.

[1] = system: HOG-GSC brain tumor stem cell line; test: In vivo efficacy evaluation, HOG-GSC orthotopic xenograft model; design: species or system BALB/c nude mouse; details: 25 mg/kg/day oral, day 16 after tumor transplantation
Text: First, HOG-GSC which is a brain tumor stem cell line was transplanted to a caudate putamen in the brain of a BALB/c nude mouse to establish am orthotropic xenograft model. After transplanting the brain tumor stem cells, the implementation compound of the present invention was orally administered from day 7 for 3 weeks with a schedule of 5 days of administration and 2 days of off medication, and only excipient was administration in the same manner to the control group. Thereafter, based on clinical findings resulting from the growth of the brain tumor in the animals, the survival period of the mouse was investigated, thereby confirming that the death of the animal due to a tumor was delayed by the administration of the implementation compound of the present invention. In addition, both the control mouse and the mouse to which the implementation compound of the present invention was administered were euthanized on day 16 after transplanting the tumor, their brain tissues were harvested, and the sizes of the brain tumor on the same date were compared.

[2] = In vivo PK test, drug concentration in plasma after oral or intravenous administration; details: CRljOri:CD1(ICR), mouse, plasma
Procedure: • Experimental Drug: Compound 11 • Excipient: 10% DMSO, 75% PEG400, 15% saline 1.2. Experimental system • mouse, CRljOri:CD1(ICR), SPF 6 weeks old (7 weeks old at the time of administration) 1.3. Administration route • oral administration (PO), intravenous administration (IV) 1.4. Administration method and number of administration
After obtaining the mouse, the mouse was acclimatized for 5 days, and used in the experiment. An administration dose was 25 mg/kg by oral administration and 5 mg/kg by intravenous administration. A dosage for each individual was calculated based on the weight after fasting (on the day of administration), and the drug was orally administered once to an oral administration (PO) group using a disposable syringe (1 mL) with a zonde for oral administration attached, and intravenously administered to the tail vein of an intravenous administration (IV) group using a disposable syringe (1 mL).
About 0.3 mL of blood was collected from a jugular vein with a 1 mL syringe (25G) treated with 3.8% sodium citrate (about 30˜40 μl), placed in one microtube (QSP, 1.5 mL), and centrifuged at 12,000 RPM/3 min to collect plasma. The plasma was frozen and stored at −80° C. until analysis, and all animals of a pharmacokinetic experiment group were euthanized after completing the blood collection.
580 μl of acetonitrile (including internal standard) was added to 20 μl of plasma/tissue, and centrifugation was performed at 4° C. at 15,000 rpm for 5 minutes with vortexing. A supernatant obtained after the centrifugation was analyzed with LC-MS/MS.
PK parameter was calculated as a non-compartmental analysis model, using a phoenix WinNonlin 6.4 version (Pharsight, USA) program.

[3] = iv, 5 mg/kg, intravenous 5 mg/kg, read-out: Drug concentration in plasma, Average
[4] = iv, 5 mg/kg, intravenous 5 mg/kg, read-out: Drug concentration in plasma, Individual
[5] = po, 25 mg/kg, oral 25 mg/kg, read-out: Drug concentration in plasma, Average

concentration at 0.08 h [2, 3]: 2560 ng/mL | concentration at 0.08 h [2, 4]: 2820 ng/mL | concentration at 0.25 h [2, 3]: 2540 ng/mL | concentration at 0.25 h [2, 4]: 2600 ng/mL | concentration at 0.5 h [2, 3]: 2260 ng/mL | concentration at 0.5 h [2, 4]: 2790 ng/mL | concentration at 1 h [2, 3]: 2100 ng/mL | concentration at 1 h [2, 4]: 2590 ng/mL | concentration at 2 hr ([2]; iv, 5 mg/kg, intravenous 5 mg/kg, 2 hr, read-out: Drug concentration in plasma, Average): 1570 ng/mL | concentration at 2 hr ([2]; iv, 5 mg/kg, intravenous 5 mg/kg, 2 hr, read-out: Drug concentration in plasma, Individual): 1130 ng/mL | concentration at 4 h [2, 3]: 1280 ng/mL | concentration at 4 h [2, 4]: 1050 ng/mL | concentration at 6 h ([2]; iv, 5 mg/kg, intravenous 5 mg/kg, 6 hr): 652 ng/mL | concentration at 8 h [2, 3]: 575 ng/mL | concentration at 8 h [2, 4]: 424 ng/mL | concentration at 24 h ([2]; iv, 5 mg/kg, intravenous 5 mg/kg, BQL = <1 ng/ml, ND = not detectable, read-out: Drug concentration in plasma, Individual): 1.9 ng/mL | concentration at 24 h [2, 3]: 1.8 ng/mL | concentration at 0.25 h [2, 5]: 2910 ng/mL | concentration at 0.5 h [2, 5]: 4420 ng/mL | concentration at 1 h [2, 5]: 3770 ng/mL | concentration at 2 h ([2]; po, 25 mg/kg, oral 25 mg/kg, 2 hr): 3870 ng/mL | concentration at 4 h [2, 5]: 3540 ng/mL
SMILES: CC(C)(C)c1ccc(-c2cc(/C=C3\SC(=O)NC3=O)ccn2)cc1 [Compound 11, (Z)-5-((2-(4-(tert-butyl)phenyl)pyridin-4-yl)methylene)thiazolidine-2,4-dione]
cell viability inhibition effect (normalized MTS value) (HOG-GSC cells): significant cell viability inhibition effect | cell viability of HOG-GSC compared with DMSO control (HOG-GSC): significantly decreased | concentration dependence of HOG-GSC cell viability (HOG-GSC): decreased in proportion to the concentration | Tumor cross-sectional area/brain cross-sectional ratio, Average [1]: 0.02186 | Tumor cross-sectional area/brain cross-sectional ratio, individual [1]: 0.04373 and 0
